Measured values as given in publication PMC8286840, “Identifying SARS-CoV-2 antiviral compounds by screening for small molecule inhibitors of Nsp3 papain-like protease” (Biochemical Journal, 2021).
Where a name gives a salt, the structure may show the parent alone. Read-outs that look alike come from different tables or passages of the source.

Legend:
[1] = target: T1, SARS-CoV-2 PLpro (nsp3 1564–1878) (Severe acute respiratory syndrome coronavirus 2, UniProt P0DTD1); assay: biochemical; parameters: FRET-quenched peptide (Pro3) cleavage by PLpro, 10 min pre-incubation, slope over 20 min, normalised to no-compound control; conditions: high concentration screen, read-out: % of control remaining
[2] = target: T1, SARS-CoV-2 PLpro (nsp3 1564–1878); assay: biochemical; parameters: FRET-quenched peptide (Pro3) cleavage by PLpro, 10 min pre-incubation, slope over 20 min, normalised to no-compound control; conditions: low concentration screen, read-out: % of control remaining

## CCN1CCCC1CNC(=O)c1cc(S(=O)(=O)CC)c(N)cc1OC (stereo not shown) [Amisulpride]
[1]; Well no.=2275
  remaining activity at 3.75 µM: 97.7%
[1]; Well no.=8149
  remaining activity at 3.75 µM: 107%
[2]; Well no.=2275
  remaining activity at 1.25 µM: 93.3%
[2]; Well no.=8149
  remaining activity at 1.25 µM: 107%

## CN(C)CCC=C1c2ccccc2CCc2ccccc21 [Amitriptyline hydrochloride]
[1]; Well no.=150
  remaining activity at 3.75 µM: 98.5%
[2]; Well no.=150
  remaining activity at 1.25 µM: 103%

## CN(C)CCC=C1c2ccccc2CCc2ccccc21 [Amitriptyline.HCl]
[1]; Well no.=2122
  remaining activity at 3.75 µM: 104%
[2]; Well no.=2122
  remaining activity at 1.25 µM: 102%

## CCOC(=O)C1=C(COCCN)NC(C)=C(C(=O)OC)C1c1ccccc1Cl (stereo not shown) [Amlodipine]
[1]; Well no.=1711
  remaining activity at 3.75 µM: 99%
[2]; Well no.=1711
  remaining activity at 1.25 µM: 99.1%

## CC1(C)[C@@H](O[C@H]2O[C@H](C(=O)O)[C@@H](O)[C@H](O)[C@H]2O[C@@H]2O[C@H](C(=O)O)[C@@H](O)[C@H](O)[C@H]2O)CC[C@]2(C)[C@H]3C(=O)C=C4[C@@H]5C[C@@](C)(C(=O)O)CC[C@]5(C)CC[C@@]4(C)[C@]3(C)CC[C@@H]12 [Ammonium Glycyrrhizinate]
[1]; Well no.=8386
  remaining activity at 3.75 µM: 99%
[2]; Well no.=8386
  remaining activity at 1.25 µM: 97.7%

## S=C(S)N1CCCC1 [Ammonium pyrrolidinedithiocarbamate]
[1]; Well no.=1495
  remaining activity at 3.75 µM: 97.9%
[2]; Well no.=1495
  remaining activity at 1.25 µM: 102%

## CCN(CC)Cc1cc(Nc2ccnc3cc(Cl)ccc23)ccc1O [Amodiaquine dihydrochloride dihydrate]
[1]; Well no.=8396
  remaining activity at 3.75 µM: 106%
[2]; Well no.=8396
  remaining activity at 1.25 µM: 97.5%

## CN(C)CCN1C(=O)c2cccc3cc(N)cc(c23)C1=O [Amonafide]
[1]; Well no.=5195
  remaining activity at 3.75 µM: 96.7%
[2]; Well no.=5195
  remaining activity at 1.25 µM: 96.9%

## CCC(C)(C)c1ccc(CC(C)CN2C[C@@H](C)O[C@@H](C)C2)cc1 (stereo partly shown) [Amorolfine HCl]
[1]; Well no.=5337
  remaining activity at 3.75 µM: 98.1%
[2]; Well no.=5337
  remaining activity at 1.25 µM: 98.1%

## CCC(C)(C)c1ccc(CC(C)CN2C[C@@H](C)O[C@@H](C)C2)cc1 (stereo partly shown) [Amorolfine]
[1]; Well no.=1748
  remaining activity at 3.75 µM: 101%
[2]; Well no.=1748
  remaining activity at 1.25 µM: 99%

## Clc1ccc2c(c1)C(N1CCNCC1)=Nc1ccccc1O2 [Amoxapine]
[1]; Well no.=158
  remaining activity at 3.75 µM: 97.1%
[1]; Well no.=1690
  remaining activity at 3.75 µM: 103%
[2]; Well no.=158
  remaining activity at 1.25 µM: 97.7%
[2]; Well no.=1690
  remaining activity at 1.25 µM: 102%

## CC1(C)S[C@@H]2[C@H](NC(=O)[C@H](N)c3ccc(O)cc3)C(=O)N2[C@H]1C(=O)O [Amoxicillin (sodium)]
[1]; Well no.=8274
  remaining activity at 3.75 µM: 89.9%
[2]; Well no.=8274
  remaining activity at 1.25 µM: 91.5%

## CC1(C)S[C@@H]2[C@H](NC(=O)[C@H](N)c3ccc(O)cc3)C(=O)N2[C@H]1C(=O)O [Amoxicillin (trihydrate)]
[1]; Well no.=8222
  remaining activity at 3.75 µM: 96.8%
[2]; Well no.=8222
  remaining activity at 1.25 µM: 99.5%

## CC1(C)S[C@@H]2[C@H](NC(=O)[C@H](N)c3ccc(O)cc3)C(=O)N2[C@H]1C(=O)O [Amoxicillin]
[1]; Well no.=2000
  remaining activity at 3.75 µM: 100%
[1]; Well no.=7654
  remaining activity at 3.75 µM: 97.6%
[2]; Well no.=2000
  remaining activity at 1.25 µM: 98.8%
[2]; Well no.=7654
  remaining activity at 1.25 µM: 97%

## CCNC(=O)N1CCN(CCCC(c2ccc(F)cc2)c2ccc(F)cc2)CC1 [Amperozide hydrochloride]
[1]; Well no.=165
  remaining activity at 3.75 µM: 96.4%
[2]; Well no.=165
  remaining activity at 1.25 µM: 92.6%

## C[C@@H]1[C@H](O)[C@@H](C)/C=C/C=C/C=C/C=C/C=C/C=C/C=C/[C@H](O[C@@H]2O[C@H](C)[C@@H](O)[C@H](N)[C@@H]2O)C[C@@H]2O[C@](O)(C[C@@H](O)C[C@@H](O)[C@H](O)CC[C@@H](O)C[C@@H](O)CC(=O)O[C@H]1C)C[C@H](O)[C@H]2C(=O)O [Amphotericin B]
[1]; Well no.=3470
  remaining activity at 3.75 µM: 98.9%
[2]; Well no.=3470
  remaining activity at 1.25 µM: 101%

## CC1(C)S[C@@H]2[C@H](NC(=O)[C@H](N)c3ccccc3)C(=O)N2[C@H]1C(=O)O [Ampicillin (sodium)]
[1]; Well no.=8708
  remaining activity at 3.75 µM: 101%
[2]; Well no.=8708
  remaining activity at 1.25 µM: 101%

## CC1(C)S[C@@H]2[C@H](NC(=O)[C@H](N)c3ccccc3)C(=O)N2[C@H]1C(=O)O [Ampicillin]
[1]; Well no.=2123
  remaining activity at 3.75 µM: 97.3%
[2]; Well no.=2123
  remaining activity at 1.25 µM: 97.8%

## CCOC(=O)OC(C)OC1=C(C(=O)Nc2ccccn2)N(C)S(=O)(=O)c2ccccc21 (stereo not shown) [Ampiroxicam]
[1]; Well no.=2125
  remaining activity at 3.75 µM: 103%
[2]; Well no.=2125
  remaining activity at 1.25 µM: 101%

## CC(C)CN(C[C@@H](O)[C@H](Cc1ccccc1)NC(=O)O[C@H]1CCOC1)S(=O)(=O)c1ccc(N)cc1 [Amprenavir]
[1]; Well no.=2242
  remaining activity at 3.75 µM: 102%
[1]; Well no.=8648
  remaining activity at 3.75 µM: 95.7%
[2]; Well no.=2242
  remaining activity at 1.25 µM: 101%
[2]; Well no.=8648
  remaining activity at 1.25 µM: 94.1%

## CCCc1ncc(C[n+]2ccccc2C)c(N)n1 [Amprolium HCl]
[1]; Well no.=8588
  remaining activity at 3.75 µM: 108%
[2]; Well no.=8588
  remaining activity at 1.25 µM: 106%

## COc1cc(NS(C)(=O)=O)ccc1Nc1c2ccccc2nc2ccccc12 [Amsacrine hydrochloride]
[1]; Well no.=346
  remaining activity at 3.75 µM: 103%
[2]; Well no.=346
  remaining activity at 1.25 µM: 97.8%

## N#C[C@H](O[C@@H]1O[C@H](CO[C@@H]2O[C@H](CO)[C@@H](O)[C@H](O)[C@H]2O)[C@@H](O)[C@H](O)[C@H]1O)c1ccccc1 [Amygdalin]
[1]; Well no.=3472
  remaining activity at 3.75 µM: 102%
[2]; Well no.=3472
  remaining activity at 1.25 µM: 100%

## COc1cc(F)c(C(C)C)cc1-c1ccc(C(F)(F)F)cc1CN1C(=O)O[C@H](c2cc(C(F)(F)F)cc(C(F)(F)F)c2)[C@@H]1C [Anacetrapib (MK-0859)]
[1]; Well no.=5312
  remaining activity at 3.75 µM: 93.1%
[2]; Well no.=5312
  remaining activity at 1.25 µM: 94.2%

## O=C1CN2Cc3c(ccc(Cl)c3Cl)N=C2N1 [Anagrelide HCl]
[1]; Well no.=5022
  remaining activity at 3.75 µM: 99%
[2]; Well no.=5022
  remaining activity at 1.25 µM: 93.8%

## O=C1CN2Cc3c(ccc(Cl)c3Cl)N=C2N1 [Anagrelide]
[1]; Well no.=1629
  remaining activity at 3.75 µM: 97.6%
[2]; Well no.=1629
  remaining activity at 1.25 µM: 95.8%

## CN(C)N(C)C(=O)[C@@]1(Cc2ccccc2)CCCN(C(=O)[C@@H](Cc2c[nH]c3ccccc23)NC(=O)C(C)(C)N)C1 [Anamorelin (hydrochloride)]
[1]; Well no.=7291
  remaining activity at 3.75 µM: 97.8%
[2]; Well no.=7291
  remaining activity at 1.25 µM: 98.3%

## CN(C)N(C)C(=O)[C@@]1(Cc2ccccc2)CCCN(C(=O)[C@@H](Cc2c[nH]c3ccccc23)NC(=O)C(C)(C)N)C1 [Anamorelin]
[1]; Well no.=8437
  remaining activity at 3.75 µM: 96.9%
[2]; Well no.=8437
  remaining activity at 1.25 µM: 97.3%

## CCCCC/C=C\C/C=C\C/C=C\C/C=C\CCCC(=O)NCCO [Anandamide (20:4, n-6)]
[1]; Well no.=4290
  remaining activity at 3.75 µM: 93%
[2]; Well no.=4290
  remaining activity at 1.25 µM: 99.3%

## CC(C)(C#N)c1cc(Cn2cncn2)cc(C(C)(C)C#N)c1 [Anastrozole]
[1]; Well no.=1858
  remaining activity at 3.75 µM: 102%
[2]; Well no.=1858
  remaining activity at 1.25 µM: 101%

## N=c1ccn2c(n1)O[C@H]1[C@H](O)[C@@H](CO)O[C@H]12 [Ancitabine hydrochloride]
[1]; Well no.=294
  remaining activity at 3.75 µM: 93.7%
[2]; Well no.=294
  remaining activity at 1.25 µM: 98.8%
